Assay [1] has as its target T1, Pin1 (Homo sapiens, UniProt Q13526). In words: DELFIA displacement assay (displacement of biotinylated D-peptide from 6His-Pin1). It counts as binding. Also noted: human Pin1 (residues 1-163); made in house; host or cells: E. coli BL21 (DE3) gold pLysS. The source says:
(§1) Important to the success of structure activity relations studies, robust biochemical, biophysical, and cell-based assays were implemented that enabled rapid and iterative evaluations of test Pin1 targeting agents. First, the DELFIA (Dissociation-enhanced lanthanide fluorescent immunoassay) assay platform was used to derive a robust heterogeneous assay to monitor the ability of test agents to displace the binding between Pin1 and the D-Peptide (Table 1), which was obtained in a biotinylated form (FIG. 10). […] Second, for an orthogonal biophysical assay denaturation thermal shift measurements were used. Pin1 was incubated with vehicle control (buffer with 1% DMSO), or test agents at protein: ligand ratio of 1:2 (20 μM protein-40 μM compound) for 10 min at 10° C. in the presence of the fluorescent dye SYPRO Orange. The samples were gradually exposed to increasing temperature (linear gradient from 10° C. to 95° C.), causing the protein to unfold. This unfolding allowed the fluorescent dye to bind to the protein's exposed hydrophobic residues, resulting in an increase in fluorescence. The thermal shift assay measures the protein's melting temperature (Tm), which is the temperature at which the protein denatures by 50%. Ligands can affect a protein target to thermal denaturation, which could manifest in a positive or negative shift in the protein denaturation temperature (ΔTm) (Bai N, Roder H, Dickson A, & Karanicolas J (2019) Scientific Reports 9; and Kranz J K & Schalk-Hihi C (2011) Fragment-Based Drug Design: Tools, Practical Approaches, and Examples 493:277-298). Using these two assays, a series of commercially available Pin1 inhibitors were profiled (Table 1). The non-covalent agent D-peptide resulted only moderately active, with an IC50 value of ˜3 μM that closely resembled the dissociation constant for this agent determined via isothermal titration calorimetry, and the ˜ 3 μM IC50 value as reported by a fluorescence polarization assay (Pinch B J, et al. (2020) Nat Chem Biol 16(9):979-987). […] (Table 1) was observed.
For the reported covalent agents such as sulfopin (Dubiella C, et al. (2021) Nat Chem Biol 17(9):954-963), BJP-07-017-3 (Pinch B J, et al. (2020) Nat Chem Biol 16(9):979-987), or KPT-6566 (Campaner E, et al. (2017) Nat Commun 8:15772), a 6-h pre-incubation period was included in the DELFIA assay to allow the covalent reaction to take place. For those agents, IC50 values that fell in the low nanomolar range were observed, consistent with what was reported previously for those compounds. […] To make those determinations in a broader panel of cancer cell lines three pancreatic cancer cell lines, BxPC3, MIA-PaCa-2, and PANC-1, the breast cancer cell line MDA-MB-231, the prostate cancer cell line PC3, and the non-small cell lung cancer cell line A549 were chosen. Each cell line represents various states of KRAS activating mutations (for example BxPC3 is wt-KRAS, while MIAPaCa2 carries the KRAS(G12C) mutation, and the PANC-1 the KRAS(G12D) (Miquel M, Zhang S, & Pilarsky C (2021) Front Cell Dev Biol 9:748631), A549 is KRAS(G12S) (Wang H, et al. (2019) EBioMedicine 49:106-117), MDA-MB-231 is KRAS(G13D) (Kim R K, et al. (2015) Exp Mol Med 47(1):e137), PC3 is wt-KRAS (Bouali S, et al. (2009) Oncol Rep 21(3):731-735). Pin1 protein levels in these cell lines were established using a specific Pin1 antibody in western blot analyses (FIG. 1A). The data confirmed that all these selected human cancer cell lines expressed a significant level of Pin1 (FIG. 1A).
Each well of 96-well streptavidin-coated plates (PerkinElmer) was incubated with 100 μL of 200 nM biotinylated D-peptide for 2 h and washed 3 times with a wash solution (PerkinElmer). Subsequently, a mixture containing Pin1, and a serial dilution of the test compounds were pre-incubated for 6 h. Eu-N1-labeled anti-6x-His antibody (PerkinElmer, 1:2000) was then added to this mixture and further incubated in the biotinylated D-peptide-bound plates for another 2 h. […]

The target of assay [2] is T1, Pin1. As to the kind of experiment: Denaturation thermal shift assay (SYPRO Orange). It counts as binding. Set-up: human Pin1 (residues 1-163); made in house; host or cells: E. coli BL21 (DE3) gold pLysS.
Text: as §1
Thermal shift assays for Pin1 alone and in the presence of the inhibitors were obtained with a BioRad CFX Connect Real-Time PCR Detection System. Each data point was collected in quadruplicate. Each sample was prepared using buffer 50 mM Phosphate pH 7.5, 150 mM NaCl, 1% DMSO. Protein: ligand ratio used was 1:2 (20 μM protein-40 μM compound), and SYPRO Orange was used. Incubation of the Pin1 protein with the compounds was performed at 10° C. for 10 min. Samples were then heated from 10 to 95° C. with heating increments of 0.05° C., over 30 min. Fluorescence intensity was measured within the excitation/emission ranges 470-505/540-700 nm.

[3] abbreviates: Table 3, single transition, ± SE of four replicates.
[4] abbreviates: Table 4, single transition, ± SE of four replicates.

Where a SMILES comes first, the peptide text is derived from it. [ ]: non-standard residue; d: D form. The star is where a group is joined. Trp(5-OH) = N[C@@H](Cc1c[nH]c2ccc(O)cc12)C(=O)O; Phe(4-CN) = N#Cc1ccc(C[C@H](N)C(=O)O)cc1; Phe(4-Cl) = N[C@@H](Cc1ccc(Cl)cc1)C(=O)O; Phe(4-F) = N[C@@H](Cc1ccc(F)cc1)C(=O)O; mTyr = N[C@@H](Cc1cccc(O)c1)C(=O)O; 4Pal = N[C@@H](Cc1ccncc1)C(=O)O; Pip = O=C(O)[C@@H]1CCCCN1; ClAc = O=C(CCl)*

T1 sequence (Q13526 whole entry, the tested form may be a part): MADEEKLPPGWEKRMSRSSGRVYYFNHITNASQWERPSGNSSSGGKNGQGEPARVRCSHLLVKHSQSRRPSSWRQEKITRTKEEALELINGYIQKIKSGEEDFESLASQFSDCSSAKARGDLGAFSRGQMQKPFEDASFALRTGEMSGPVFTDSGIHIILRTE

Consider `N#Cc1ccc(C[C@H](NC(=O)CCl)C(=O)N2CCCC[C@H]2C(=O)N[C@@H](Cc2c[nH]c3ccccc23)C(N)=O)cc1` [158G4] (ClAc-[Phe(4-CN)]-[Pip]-Trp-NH2), for which the IC50 on Pin1 [1] (Table 3, ± SD from duplicates) was determined as 118 ± 21 nM. Besides, the “ΔTm (° C.)” value on Pin1 [2] (setting [3]) is −9.71 ± 0.07 °C.
For `NC(=O)[C@H](Cc1c[nH]c2ccccc12)NC(=O)[C@@H]1CCCCN1C(=O)[C@H](Cc1cccc(O)c1)NC(=O)CCl` [158D9] (ClAc-[mTyr]-[Pip]-Trp-NH2) the same measures were 34 ± 2 nM and −8.28 ± 0.04 °C.
The corresponding values for `COc1ccc(C[C@H](NC(=O)CCl)C(=O)N2CCCC[C@H]2C(=O)N[C@@H](Cc2c[nH]c3ccccc23)C(N)=O)cc1` [158H5] (ClAc-Tyr(Me)-[Pip]-Trp-NH2) are 82.4 ± 0.4 nM and −9.82 ± 0.08 °C.
For `NC(=O)[C@H](Cc1c[nH]c2ccccc12)NC(=O)[C@@H]1CCCCN1C(=O)[C@H](Cc1ccc(O)cc1)NC(=O)CCl` [158G5] (HELM PEPTIDE1{[O=C(CCl)[*:2]].Y.[O=C([C@@H]1CCCCN1[*:1])[*:2]].W.[am]}$$$$V2.0) the same measures were 119 ± 6 nM and −9.29 ± 0.04 °C.
Compound `NC(=O)[C@H](Cc1c[nH]c2ccccc12)NC(=O)[C@@H]1CCCCN1C(=O)[C@H](Cc1ccncc1)NC(=O)CCl` [158H1] (ClAc-[4Pal]-[Pip]-Trp-NH2) gave a half-maximal inhibitory concentration (IC50) at Pin1 [1] (Table 3, ± SD from duplicates) of 99 ± 4 nM. Besides, on Pin1 [2] (setting [3]), the “ΔTm (° C.)” value is −9.18 ± 0.07 °C.
For the compound `NC(=O)[C@H](Cc1c[nH]c2ccccc12)NC(=O)[C@@H]1CCCCN1C(=O)[C@H](Cc1c[nH]c2ccc(O)cc12)NC(=O)CCl` [158H3] (ClAc-[Trp(5-OH)]-[Pip]-Trp-NH2), the IC50 at Pin1 [1] (Table 4, ± SD from duplicates) amounted to 56 ± 5 nM. In addition, the “ΔTm (° C.)” value at Pin1 [2] (setting [4]) was −6.56 ± 0.04 °C.
Take `Cc1cccc2c(C[C@H](NC(=O)[C@@H]3CCCCN3C(=O)[C@@H]3Cc4c([nH]c5ccccc45)CN3C(=O)CCl)C(N)=O)c[nH]c12` [164A11]: the “ΔTm (° C.)” value on Pin1 [2] (setting [4]) is “+10.45 ± 0.07 °C”.
With `NC(=O)[C@H](Cc1c[nH]c2ccccc12)NC(=O)[C@@H]1CCCCN1C(=O)[C@H](Cc1ccc(F)cc1)NC(=O)CCl` [158G11] (ClAc-[Phe(4-F)]-[Pip]-Trp-NH2), the IC50 on Pin1 [1] (Table 3, ± SD from duplicates) turned out to be 146 ± 12 nM. Further, the “ΔTm (° C.)” value at Pin1 [2] (setting [3]) was −10.57 ± 0.11 °C.
In the case of `NC(=O)[C@H](Cc1c[nH]c2ccccc12)NC(=O)[C@@H]1CCCCN1C(=O)[C@H](Cc1c[nH]c2ccccc12)NC(=O)CCl` [158G9] (HELM PEPTIDE1{[O=C(CCl)[*:2]].W.[O=C([C@@H]1CCCCN1[*:1])[*:2]].W.[am]}$$$$V2.0), the IC50 was found to be 44 ± 8 nM at Pin1 [1] (Table 3, ± SD from duplicates); 43 nM at Pin1 [1] (running text and figure legends). Also, the “ΔTm (° C.)” value at Pin1 [2] (setting [3]) was −9.42 ± 0.18 °C.
As for `NC(=O)[C@H](Cc1c[nH]c2ccccc12)NC(=O)[C@@H]1CCCCN1C(=O)[C@H](Cc1ccc(Cl)cc1)NC(=O)CCl` [158G12] (ClAc-[Phe(4-Cl)]-[Pip]-Trp-NH2), the IC50 on Pin1 [1] (Table 3, ± SD from duplicates) stood at 527 ± 38 nM. For the same compound, the “ΔTm (° C.)” value at Pin1 [2] (Table 5, only one transition given) is −12.19 ± 0.07 °C.

The values above are taken from patent publication US20250296955A1, “PIN1 TARGETING COMPOUNDS AND DEGRADERS AND METHODS THEREOF” (The Regents of the University of California, priority 2024, published 2025).
